From patent US9850283B2, “Macrocyclic inhibitors of the PD-1/PD-L1 and CD80(B7-1)/PD-L1 protein/protein interactions” (BRISTOL-MYERS SQUIBB COMPANY, priority 2013, dated 2017)
Starred links: 1 amine or outer side, 2 acyl side, 3 side chain; linkers in the order of their positions; H or OH if unused. Positions of bridges follow the written chain, without caps; N, C: chain ends. Non-standard residues stand in square brackets, D forms with d. Residues, ends and D or L forms follow the SMILES beside them. ξ: configuration not given here. X3 = O=C([C@@H]1C[C@@H](Cc2ccc(F)cc2)CN1[*:1])[*:2]; X17 = O=C([C@@H]1C[C@@H](c2nn[nH]n2)CN1[*:1])[*:2]; Pro(4R-Bn) = O=C(O)[C@@H]1C[C@@H](Cc2ccccc2)CN1; Pro(trans-4-F) = O=C(O)[C@@H]1C[C@@H](F)CN1; NMeNle = CCCC[C@H](NC)C(=O)O; NMeA = CN[C@@H](C)C(=O)O; Orn = NCCC[C@H](N)C(=O)O; Dab = NCC[C@H](N)C(=O)O; Dap = NC[C@H](N)C(=O)O; ξC = NC(CS)C(=O)O; Sar = CNCC(=O)O

Tests used:
[1] = biological target: T1, LK35.2-hPD-L1 cells / PE-labeled PD-1-Ig (Homo sapiens, UniProt Q9NZQ7); assay: LK35.2-hPD-L1 cell binding high-content screening assay; assay type: cell-based; conditions: cell binding assay, cell line not given; cluster symbol; read-out: CBA IC50 cluster
T1 construct: expressed in transfected cells; host or cells: LK35.2 mouse B cell line
In short: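 Compound effect on PD-1/PD-L1 binding is measured by imaging cell-associated phycoerythrin signal. Human PD-1-Ig (PE on Ig tag, 1 nM final) is applied with compound to a murine B cell line overexpressing human PD-L1 for 1 h at 37 °C in serum-containing RPMI.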

[2] = biological target: T2, Human PD-L1/PD-1 (Homo sapiens, UniProt Q9NZQ7); assay: HTRF PD-1-Ig/PD-L1-His binding assay (human PD-L1); conditions: cluster symbol; read-out: HTRF IC50 cluster
T2 construct: made in house; host or cells: HEK293T
In short: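 Steps: truncated PD-1-Ig and PD-L1-His fusions are incubated in dPBS containing 0.1% (w/v) BSA and 0.05% (v/v) Tween-20. Detection antibodies are then added (Eu cryptate anti-Ig at 1 nM final, APC anti-His at 20 nM final), and time-resolved FRET is measured.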

T1 sequence (Q9NZQ7 19-290): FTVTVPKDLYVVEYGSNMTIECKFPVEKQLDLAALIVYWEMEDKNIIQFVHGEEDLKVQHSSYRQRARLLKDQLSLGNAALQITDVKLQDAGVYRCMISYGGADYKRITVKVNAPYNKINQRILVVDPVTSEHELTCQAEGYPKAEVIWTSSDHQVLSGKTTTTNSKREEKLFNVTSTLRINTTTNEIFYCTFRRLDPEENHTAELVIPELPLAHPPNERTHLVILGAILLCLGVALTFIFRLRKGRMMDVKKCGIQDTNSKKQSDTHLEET
T2 sequence (Q9NZQ7 with tags, fused parts or gaps): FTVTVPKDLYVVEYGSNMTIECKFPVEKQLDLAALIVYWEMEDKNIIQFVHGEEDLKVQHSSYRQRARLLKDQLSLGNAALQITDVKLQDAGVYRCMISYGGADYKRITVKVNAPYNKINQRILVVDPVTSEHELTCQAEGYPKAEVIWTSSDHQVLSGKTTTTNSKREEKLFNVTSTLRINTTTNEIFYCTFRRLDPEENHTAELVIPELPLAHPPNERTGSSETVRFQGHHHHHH

SMILES: CCCC[C@H]1C(=O)N(C)[C@@H](CCCC)C(=O)N[C@@H](CO)C(=O)N[C@H](C(=O)NCC(N)=O)CSCC(=O)N[C@@H](Cc2ccccc2)C(=O)N(C)[C@@H](C)C(=O)N[C@@H](CC(N)=O)C(=O)N2CCC[C@H]2C(=O)N[C@@H](Cc2cnc[nH]2)C(=O)N[C@@H](CC(C)C)C(=O)N(C)CC(=O)N[C@@H](Cc2c[nH]c3ccccc23)C(=O)N[C@@H](CO)C(=O)N[C@@H](Cc2c[nH]c3ccccc23)C(=O)N1C [Example 10001] ({CH2CO}-F[NMeA]NPHL[Sar]WSW[NMeNle][NMeNle]SCG-NH2; thioether N-14)
- IC50 [1]: > 74.3 nM
- IC50 [2]: 6.76 to 30.3 nM

SMILES: CCCC[C@H]1C(=O)N(C)[C@@H](CCCC)C(=O)N[C@@H](CCCNC(=N)N)C(=O)NC(C(=O)NCC(N)=O)CSCC(=O)N[C@@H](Cc2ccc(O)cc2)C(=O)N(C)[C@@H](C)C(=O)N[C@@H](CC(N)=O)C(=O)N2CCC[C@H]2C(=O)N[C@@H](Cc2c[nH]cn2)C(=O)NCC(=O)N[C@@H](CC(C)C)C(=O)N2CCC[C@H]2C(=O)N[C@@H](Cc2c[nH]c3ccccc23)C(=O)N[C@@H](CO)C(=O)N[C@@H](Cc2c[nH]c3ccccc23)C(=O)N1C (stereo partly shown) [Example 10516] ({CH2CO}-Y[NMeA]NPHGLPWSW[NMeNle][NMeNle]R[ξC]G-NH2; thioether N-15)
- IC50 [1]: > 74.3 nM
- IC50 [2]: > 30.5 nM

SMILES: CCCC[C@H]1C(=O)N(C)[C@@H](CCCC)C(=O)N[C@@H](CCCNC(=N)N)C(=O)NC(C(=O)NCC(N)=O)CSCC(=O)N[C@@H](Cc2ccc(O)cc2)C(=O)N(C)[C@@H](C)C(=O)N[C@@H](CC(N)=O)C(=O)N2CCC[C@H]2C(=O)N[C@@H](Cc2c[nH]cn2)C(=O)N[C@@H](C)C(=O)N[C@@H](CC(C)C)C(=O)N2CCC[C@H]2C(=O)N[C@@H](Cc2c[nH]c3ccccc23)C(=O)N[C@@H](CO)C(=O)N[C@@H](Cc2c[nH]c3ccccc23)C(=O)N1C (stereo partly shown) [Example 10517] ({CH2CO}-Y[NMeA]NPHALPWSW[NMeNle][NMeNle]R[ξC]G-NH2; thioether N-15)
- IC50 [1]: > 74.3 nM
- IC50 [2]: > 30.5 nM

SMILES: CCCC[C@H]1C(=O)N(C)[C@@H](CCCC)C(=O)N[C@@H](CCN)C(=O)N[C@H](C(=O)NCC(N)=O)CSCC(=O)N[C@@H](Cc2ccc(O)cc2)C(=O)N(C)[C@@H](C)C(=O)N[C@@H](CC(N)=O)C(=O)N2CCC[C@H]2C(=O)N[C@@H](Cc2c[nH]cn2)C(=O)N[C@@H](CCC(=O)O)C(=O)N2C[C@H](F)C[C@H]2C(=O)N[C@@H](Cc2c[nH]c3ccccc23)C(=O)N[C@@H](CCN)C(=O)N[C@@H](Cc2c[nH]c3ccccc23)C(=O)N1C [Example 13001] ({CH2CO}-Y[NMeA]NPHE[Pro(trans-4-F)]W[Dab]W[NMeNle][NMeNle][Dab]CG-NH2; thioether N-14)
- IC50 [1]: 0.158 to 4.71 nM
- IC50 [2]: 0.385 to 6.74 nM

SMILES: CCCC[C@H]1C(=O)N(C)[C@@H](CCCC)C(=O)N[C@@H](C)C(=O)N[C@H](C(=O)NCC(N)=O)CSCC(=O)N[C@@H](Cc2ccc(O)cc2)C(=O)N(C)[C@@H](C)C(=O)N[C@@H](CC(=O)O)C(=O)N2CCC[C@H]2C(=O)N[C@@H](Cc2c[nH]cn2)C(=O)N[C@@H](CCC(=O)O)C(=O)N2C[C@H](F)C[C@H]2C(=O)N[C@@H](Cc2c[nH]c3ccccc23)C(=O)N[C@@H](CCN)C(=O)N[C@@H](Cc2c[nH]c3ccccc23)C(=O)N1C [Example 13002] ({CH2CO}-Y[NMeA]DPHE[Pro(trans-4-F)]W[Dab]W[NMeNle][NMeNle]ACG-NH2; thioether N-14)
- IC50 [1]: 0.158 to 4.71 nM
- IC50 [2]: 0.385 to 6.74 nM

SMILES: CCCC[C@H]1C(=O)N(C)[C@@H](CCCC)C(=O)N[C@@H](CCCN)C(=O)N[C@H](C(=O)NCC(N)=O)CSCC(=O)N[C@@H](Cc2ccc(O)cc2)C(=O)N(C)[C@@H](C)C(=O)N[C@@H](CC(N)=O)C(=O)N2CCC[C@H]2C(=O)N[C@@H](CN)C(=O)N[C@@H](CC(C)C)C(=O)N2C[C@H](F)C[C@H]2C(=O)N[C@@H](Cc2c[nH]c3ccccc23)C(=O)N[C@@H](CO)C(=O)N[C@@H](Cc2c[nH]c3ccccc23)C(=O)N1C [Example 13003] ({CH2CO}-Y[NMeA]NP[Dap]L[Pro(trans-4-F)]WSW[NMeNle][NMeNle][Orn]CG-NH2; thioether N-14)
- IC50 [1]: 0.158 to 4.71 nM
- IC50 [2]: 0.385 to 6.74 nM

SMILES: CCCC[C@H]1C(=O)N(C)[C@@H](CCCC)C(=O)N[C@@H](CCN)C(=O)N[C@H](C(=O)NCC(N)=O)CSCC(=O)N[C@@H](Cc2ccc(O)cc2)C(=O)N(C)[C@@H](C)C(=O)N[C@@H](CC(N)=O)C(=O)N2CCC[C@H]2C(=O)N[C@@H](Cc2c[nH]cn2)C(=O)N[C@@H](CCC(=O)O)C(=O)N2C[C@H](c3nn[nH]n3)C[C@H]2C(=O)N[C@@H](Cc2c[nH]c3ccccc23)C(=O)N[C@@H](CCN)C(=O)N[C@@H](Cc2c[nH]c3ccccc23)C(=O)N1C [Example 13004] ({CH2CO}-Y[NMeA]NPHE[X17]W[Dab]W[NMeNle][NMeNle][Dab]CG-NH2; thioether N-14)
- IC50 [1]: 0.158 to 4.71 nM
- IC50 [2]: 0.385 to 6.74 nM

SMILES: CCCC[C@H]1C(=O)N(C)[C@@H](CCCC)C(=O)N[C@@H](CCN)C(=O)N[C@H](C(=O)NCC(N)=O)CSCC(=O)N[C@@H](Cc2ccc(O)cc2)C(=O)N(C)[C@@H](C)C(=O)N[C@@H](CC(N)=O)C(=O)N2CCC[C@H]2C(=O)N[C@@H](Cc2c[nH]cn2)C(=O)N[C@@H](CCC(=O)O)C(=O)N2C[C@H](Cc3ccccc3)C[C@H]2C(=O)N[C@@H](Cc2c[nH]c3ccccc23)C(=O)N[C@@H](CCN)C(=O)N[C@@H](Cc2c[nH]c3ccccc23)C(=O)N1C [Example 13007] ({CH2CO}-Y[NMeA]NPHE[Pro(4R-Bn)]W[Dab]W[NMeNle][NMeNle][Dab]CG-NH2; thioether N-14)
- IC50 [1]: 0.158 to 4.71 nM
- IC50 [2]: 0.385 to 6.74 nM

SMILES: CCCC[C@H]1C(=O)N(C)[C@@H](CCCC)C(=O)N[C@@H](C)C(=O)N[C@H](C(=O)NCC(N)=O)CSCC(=O)N[C@@H](Cc2ccc(O)cc2)C(=O)N(C)[C@@H](C)C(=O)N[C@@H](CC(=O)O)C(=O)N2CCC[C@H]2C(=O)N[C@@H](Cc2c[nH]cn2)C(=O)N[C@@H](CCC(=O)O)C(=O)N2C[C@H](Cc3ccccc3)C[C@H]2C(=O)N[C@@H](Cc2c[nH]c3ccccc23)C(=O)N[C@@H](CCN)C(=O)N[C@@H](Cc2c[nH]c3ccccc23)C(=O)N1C [Example 13008] ({CH2CO}-Y[NMeA]DPHE[Pro(4R-Bn)]W[Dab]W[NMeNle][NMeNle]ACG-NH2; thioether N-14)
- IC50 [1]: 0.158 to 4.71 nM
- IC50 [2]: 0.385 to 6.74 nM

SMILES: CCCC[C@H]1C(=O)N(C)[C@@H](CCCC)C(=O)N[C@@H](CCCN)C(=O)N[C@H](C(=O)NCC(N)=O)CSCC(=O)N[C@@H](Cc2ccc(O)cc2)C(=O)N(C)[C@@H](C)C(=O)N[C@@H](CC(N)=O)C(=O)N2CCC[C@H]2C(=O)N[C@@H](CN)C(=O)N[C@@H](CC(C)C)C(=O)N2C[C@H](Cc3ccccc3)C[C@H]2C(=O)N[C@@H](Cc2c[nH]c3ccccc23)C(=O)N[C@@H](CO)C(=O)N[C@@H](Cc2c[nH]c3ccccc23)C(=O)N1C [Example 13009] ({CH2CO}-Y[NMeA]NP[Dap]L[Pro(4R-Bn)]WSW[NMeNle][NMeNle][Orn]CG-NH2; thioether N-14)
- IC50 [1]: 0.158 to 4.71 nM
- IC50 [2]: 0.385 to 6.74 nM

SMILES: CCCC[C@H]1C(=O)N(C)[C@@H](CCCC)C(=O)N[C@@H](CCC(=O)O)C(=O)N[C@H](C(=O)NCC(N)=O)CSCC(=O)N[C@@H](Cc2ccc(O)cc2)C(=O)N(C)[C@@H](C)C(=O)N[C@@H](CC(=O)O)C(=O)N2CCC[C@H]2C(=O)N[C@@H](Cc2c[nH]cn2)C(=O)N[C@@H](CCCCN)C(=O)N2C[C@H](Cc3ccccc3)C[C@H]2C(=O)N[C@@H](Cc2c[nH]c3ccccc23)C(=O)N[C@@H](CCCCN)C(=O)N[C@@H](Cc2c[nH]c3ccccc23)C(=O)N1C [Example 13010] ({CH2CO}-Y[NMeA]DPHK[Pro(4R-Bn)]WKW[NMeNle][NMeNle]ECG-NH2; thioether N-14)
- IC50 [1]: 0.158 to 4.71 nM
- IC50 [2]: 0.385 to 6.74 nM

SMILES: CCCC[C@H]1C(=O)N(C)[C@@H](CCCC)C(=O)N[C@@H](C)C(=O)N[C@H](C(=O)NCC(N)=O)CSCC(=O)N[C@@H](Cc2ccc(O)cc2)C(=O)N(C)[C@@H](C)C(=O)N[C@@H](CC(=O)O)C(=O)N2CCC[C@H]2C(=O)N[C@@H](Cc2c[nH]cn2)C(=O)N[C@@H](CCC(=O)O)C(=O)N2C[C@H](Cc3ccc(F)cc3)C[C@H]2C(=O)N[C@@H](Cc2c[nH]c3ccccc23)C(=O)N[C@@H](CCN)C(=O)N[C@@H](Cc2c[nH]c3ccccc23)C(=O)N1C [Example 13012] ({CH2CO}-Y[NMeA]DPHE[X3]W[Dab]W[NMeNle][NMeNle]ACG-NH2; thioether N-14)
- IC50 [1]: 0.158 to 4.71 nM
- IC50 [2]: 0.385 to 6.74 nM

SMILES: CCCC[C@H]1C(=O)N(C)[C@@H](CCCC)C(=O)N[C@@H](CCCN)C(=O)N[C@H](C(=O)NCC(N)=O)CSCC(=O)N[C@@H](Cc2ccc(O)cc2)C(=O)N(C)[C@@H](C)C(=O)N[C@@H](CC(N)=O)C(=O)N2CCC[C@H]2C(=O)N[C@@H](CN)C(=O)N[C@@H](CC(C)C)C(=O)N2C[C@H](Cc3ccc(F)cc3)C[C@H]2C(=O)N[C@@H](Cc2c[nH]c3ccccc23)C(=O)N[C@@H](CO)C(=O)N[C@@H](Cc2c[nH]c3ccccc23)C(=O)N1C [Example 13013]
- IC50 [1]: 0.158 to 4.71 nM
- IC50 [2]: 0.385 to 6.74 nM

SMILES: CCCC[C@H]1C(=O)N(C)[C@@H](CCCC)C(=O)N[C@@H](CCC(=O)O)C(=O)N[C@H](C(=O)NCC(N)=O)CSCC(=O)N[C@@H](Cc2ccc(O)cc2)C(=O)N(C)[C@@H](C)C(=O)N[C@@H](CC(=O)O)C(=O)N2CCC[C@H]2C(=O)N[C@@H](Cc2c[nH]cn2)C(=O)N[C@@H](CCCCN)C(=O)N2C[C@H](Cc3ccc(F)cc3)C[C@H]2C(=O)N[C@@H](Cc2c[nH]c3ccccc23)C(=O)N[C@@H](CCCCN)C(=O)N[C@@H](Cc2c[nH]c3ccccc23)C(=O)N1C [Example 13014] ({CH2CO}-Y[NMeA]DPHK[X3]WKW[NMeNle][NMeNle]ECG-NH2; thioether N-14)
- IC50 [1]: > 74.3 nM
- IC50 [2]: 0.385 to 6.74 nM
